Laboratory results published in patent US20130121994A1, “TRIAZOLOPYRIDINE DERIVATIVES” (BAYER INTELLECTUAL PROPERTY GMBH, priority 2009, published 2013).

Target: T1, human kinase Mps-1 (Homo sapiens, UniProt P33981)
T1 construct: N-terminally GST-tagged human full length recombinant Mps-1 kinase; GST (N); purchased Invitrogen, Karslruhe, Germany PV4071
T1 sequence (P33981 1-857): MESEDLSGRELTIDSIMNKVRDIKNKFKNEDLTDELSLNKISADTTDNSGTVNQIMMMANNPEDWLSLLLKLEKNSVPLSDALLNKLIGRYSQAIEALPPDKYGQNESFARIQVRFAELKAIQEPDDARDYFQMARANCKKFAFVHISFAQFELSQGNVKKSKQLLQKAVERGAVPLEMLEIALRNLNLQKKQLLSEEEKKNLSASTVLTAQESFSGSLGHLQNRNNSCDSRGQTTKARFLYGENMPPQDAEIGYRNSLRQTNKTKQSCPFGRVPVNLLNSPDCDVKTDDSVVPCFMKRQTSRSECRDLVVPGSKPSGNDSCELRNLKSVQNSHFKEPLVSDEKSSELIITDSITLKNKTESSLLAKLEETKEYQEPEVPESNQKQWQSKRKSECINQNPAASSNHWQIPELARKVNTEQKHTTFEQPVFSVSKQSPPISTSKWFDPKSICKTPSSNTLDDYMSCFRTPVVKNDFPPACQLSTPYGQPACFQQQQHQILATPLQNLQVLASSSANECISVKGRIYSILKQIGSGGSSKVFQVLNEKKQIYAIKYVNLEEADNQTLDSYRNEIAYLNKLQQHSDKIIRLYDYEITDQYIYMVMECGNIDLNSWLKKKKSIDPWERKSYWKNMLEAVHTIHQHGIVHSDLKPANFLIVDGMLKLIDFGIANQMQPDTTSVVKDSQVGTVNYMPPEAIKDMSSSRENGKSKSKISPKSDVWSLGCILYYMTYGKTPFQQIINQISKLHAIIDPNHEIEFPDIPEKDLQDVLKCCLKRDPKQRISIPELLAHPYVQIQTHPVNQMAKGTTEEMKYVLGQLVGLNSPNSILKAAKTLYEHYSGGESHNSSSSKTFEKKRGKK
Test: Mps-1 kinase assay (HTRF)
Type: biochemical

| Compound | IC50 [nM] |
| --- | --- |
| CC(C)(CO)NC(=O)c1cccc(-c2ccc3nc(Nc4ccccc4C#N)nn3c2)c1 [Example 11.046, 3-{2-[(2-cyanophenyl)amino][1,2,4]triazolo[1,5-a]pyridin-6-yl}-N-(1-hydroxy-2-methylpropan-2-yl)benzamide] | 3.29 |
| CC(C)[C@@H](C)NC(=O)c1cccc(-c2ccc3nc(Nc4ccccc4C#N)nn3c2)c1 [Example 11.047, 3-{2-[(2-cyanophenyl)amino][1,2,4]triazolo[1,5-a]pyridin-6-yl}-N-[(2R)-3-methylbutan-2-yl]benzamide] | 4.15 |
| N#Cc1ccccc1Nc1nc2ccc(-c3cccc(C(=O)NCCC(F)(F)F)c3)cn2n1 [Example 11.048, 3-{2-[(2-cyanophenyl)amino][1,2,4]triazolo[1,5-a]pyridin-6-yl}-N-(3,3,3-trifluoropropyl)benzamide] | 3.95 |
| CC(C)CNC(=O)c1cccc(-c2ccc3nc(Nc4ccccc4C#N)nn3c2)c1 [Example 11.049, 3-{2-[(2-cyanophenyl)amino][1,2,4]triazolo[1,5-a]pyridin-6-yl}-N-isobutylbenzamide] | 3.39 |
| N#Cc1ccccc1Nc1nc2ccc(-c3cccc(C(=O)NCC(F)F)c3)cn2n1 [Example 11.050, 3-{2-[(2-cyanophenyl)amino][1,2,4]triazolo[1,5-a]pyridin-6-yl}-N-(2,2-difluoroethyl)benzamide] | 4.18 |
| CC(C)[C@H](C)NC(=O)c1cccc(-c2ccc3nc(Nc4ccccc4C#N)nn3c2)c1 [Example 11.051, 3-{2-[(2-cyanophenyl)amino][1,2,4]triazolo[1,5-a]pyridin-6-yl}-N-[(2S)-3-methylbutan-2-yl]benzamide] | 5.68 |
| CCCNC(=O)c1cccc(-c2ccc3nc(Nc4ccccc4C#N)nn3c2)c1 [Example 11.052, 3-{2-[(2-cyanophenyl)amino][1,2,4]triazolo[1,5-a]pyridin-6-yl}-N-propylbenzamide] | 6.37 |
| N#Cc1ccccc1Nc1nc2ccc(-c3cccc(C(=O)NCCF)c3)cn2n1 [Example 11.054, 3-{2-[(2-cyanophenyl)amino][1,2,4]triazolo[1,5-a]pyridin-6-yl}-N-(2-fluoroethyl)benzamide] | 6.13 |
| CC(C)(C)CCNC(=O)c1cccc(-c2ccc3nc(Nc4ccccc4C#N)nn3c2)c1 [Example 11.055, 3-{2-[(2-cyanophenyl)amino][1,2,4]triazolo[1,5-a]pyridin-6-yl}-N-(3,3-dimethylbutyl)benzamide] | 9.81 |
| CC(C)(C)CNC(=O)c1cc(F)cc(-c2ccc3nc(Nc4ccccc4C#N)nn3c2)c1 [Example 11.056, 3-{2-[(2-cyanophenyl)amino][1,2,4]triazolo[1,5-a]pyridin-6-yl}-N-(2,2-dimethylpropyl)-5-fluorobenzamide] | 9.21 |
| C[C@H](NC(=O)c1cccc(-c2ccc3nc(Nc4ccccc4C#N)nn3c2)c1)C(C)(C)C [Example 11.057, 3-{2-[(2-cyanophenyl)amino][1,2,4]triazolo[1,5-a]pyridin-6-yl}-N-[(2S)-3,3-dimethylbutan-2-yl]benzamide] | 12.2 |
| CC(C)(C)CNC(=O)c1cccc(-c2ccc3nc(Nc4ccccc4C#N)nn3c2)c1F [Example 11.058, 3-{2-[(2-cyanophenyl)amino][1,2,4]triazolo[1,5-a]pyridin-6-yl}-N-(2,2-dimethylpropyl)-2-fluorobenzamide] | 12.8 |
| N#Cc1ccccc1Nc1nc2ccc(-c3cc(F)cc(C(=O)NCC(F)(F)F)c3)cn2n1 [Example 11.059, 3-{2-[(2-cyanophenyl)amino][1,2,4]triazolo[1,5-a]pyridin-6-yl}-5-fluoro-N-(2,2,2-trifluoroethyl)benzamide] | 12.6 |

Results, then the compound that gave them:

| IC50 [nM] | Compound |
| --- | --- |
| 9.04 | COC(C)(C)CNC(=O)c1cccc(-c2ccc3nc(Nc4ccccc4C#N)nn3c2)c1 [Example 11.060, 3-{2-[(2-cyanophenyl)amino][1,2,4]triazolo[1,5-a]pyridin-6-yl}-N-(2-methoxy-2-methylpropyl)benzamide] |
| 12.9 | N#Cc1ccccc1Nc1nc2ccc(-c3cccc(C(=O)NCC(F)(F)F)c3F)cn2n1 [Example 11.061, 3-{2-[(2-cyanophenyl)amino][1,2,4]triazolo[1,5-a]pyridin-6-yl}-2-fluoro-N-(2,2,2-trifluoroethyl)benzamide] |
| 13.9 | CC(C)(O)CNC(=O)c1cccc(-c2ccc3nc(Nc4ccccc4C#N)nn3c2)c1 [Example 11.062, 3-{2-[(2-cyanophenyl)amino][1,2,4]triazolo[1,5-a]pyridin-6-yl}-N-(2-hydroxy-2-methylpropyl)benzamide] |
| 17.3 | N#Cc1ccccc1Nc1nc2ccc(-c3cccc(C(=O)NCC(F)(F)C(F)(F)F)c3F)cn2n1 [Example 11.063, 3-{2-[(2-cyanophenyl)amino][1,2,4]triazolo[1,5-a]pyridin-6-yl}-2-fluoro-N-(2,2,3,3,3-pentafluoropropyl)benzamide] |
| 26.5 | C[C@H](NC(=O)c1cccc(-c2ccc3nc(Nc4ccccc4C#N)nn3c2)c1)C(F)(F)F [Example 11.064, 3-{2-[(2-cyanophenyl)amino][1,2,4]triazolo[1,5-a]pyridin-6-yl}-N-[(2S)-1,1,1-trifluoropropan-2-yl]benzamide] |
| 18.2 | CC(C)(C)NC(=O)c1cccc(-c2ccc3nc(Nc4ccccc4C#N)nn3c2)c1F [Example 11.065, N-tert-butyl-3-{2-[(2-cyanophenyl)amino][1,2,4]triazolo[1,5-a]pyridin-6-yl}-2-fluorobenzamide] |
| 26.7 | CC(F)(F)CNC(=O)c1cccc(-c2ccc3nc(Nc4ccccc4C#N)nn3c2)c1F [Example 11.066, 3-{2-[(2-cyanophenyl)amino][1,2,4]triazolo[1,5-a]pyridin-6-yl}-N-(2,2-difluoropropyl)-2-fluorobenzamide] |
| 23.9 | N#Cc1ccccc1Nc1nc2ccc(-c3cccc(C(=O)NCCC(F)(F)F)c3F)cn2n1 [Example 11.067, 3-{2-[(2-cyanophenyl)amino][1,2,4]triazolo[1,5-a]pyridin-6-yl}-2-fluoro-N-(3,3,3-trifluoropropyl)benzamide] |
| 24.7 | COCCNC(=O)c1cccc(-c2ccc3nc(Nc4ccccc4C#N)nn3c2)c1 [Example 11.068, 3-{2-[(2-cyanophenyl)amino][1,2,4]triazolo[1,5-a]pyridin-6-yl}-N-(2-methoxyethyl)benzamide] |
| 34.2 | N#Cc1ccccc1Nc1nc2ccc(-c3cccc(C(=O)NCC(F)F)c3F)cn2n1 [Example 11.069, 3-{2-[(2-cyanophenyl)amino][1,2,4]triazolo[1,5-a]pyridin-6-yl}-N-(2,2-difluoroethyl)-2-fluorobenzamide] |
| 29.7 | N#Cc1ccccc1Nc1nc2ccc(-c3cccc(C(=O)NCCO)c3)cn2n1 [Example 11.070, 3-{2-[(2-cyanophenyl)amino][1,2,4]triazolo[1,5-a]pyridin-6-yl}-N-(2-hydroxyethyl)benzamide] |
| 36.9 | C[C@H](O)CNC(=O)c1cccc(-c2ccc3nc(Nc4ccccc4C#N)nn3c2)c1 [Example 11.071, 3-{2-[(2-cyanophenyl)amino][1,2,4]triazolo[1,5-a]pyridin-6-yl}-N-[(2S)-2-hydroxypropyl]benzamide] |
| 42.2 | N#Cc1ccccc1Nc1nc2ccc(-c3cccc(C(=O)NCCF)c3F)cn2n1 [Example 11.072, 3-{2-[(2-cyanophenyl)amino][1,2,4]triazolo[1,5-a]pyridin-6-yl}-2-fluoro-N-(2-fluoroethyl)benzamide] |
| 43.5 | N#Cc1ccccc1Nc1nc2ccc(-c3ccc(F)c(C(=O)O)c3)cn2n1 [Example 11.073, 5-{2-[(2-cyanophenyl)amino][1,2,4]triazolo[1,5-a]pyridin-6-yl}-2-fluorobenzoic acid] |
| 170 | N#Cc1ccccc1Nc1nc2ccc(-c3cc(F)cc(C(=O)O)c3)cn2n1 [Example 11.074, 3-{2-[(2-cyanophenyl)amino][1,2,4]triazolo[1,5-a]pyridin-6-yl}-5-fluorobenzoic acid] |
| 1980 | CCOC(=O)c1cc(F)cc(-c2ccc3nc(Nc4ccccc4C#N)nn3c2)c1 [Example 11.075, ethyl 3-{2-[(2-cyanophenyl)amino][1,2,4]triazolo[1,5-a]pyridin-6-yl}-5-fluorobenzoate] |
| ≤ 1 | CNC(=O)c1ccc(Nc2nc3ccc(-c4cccc(C(=O)NCC(C)(C)C)c4)cn3n2)c(OC)c1 [Example 11.076, 4-[(6-{3-[(2,2-dimethylpropyl)carbamoyl]phenyl}[1,2,4]tria-zolo[1,5-a]pyridin-2-yl)amino]-3-methoxy-N-methylbenzamide] |
| ≤ 1 | COc1cc(C(=O)NC(C)(C)C)ccc1Nc1nc2ccc(-c3cccc(C(=O)NCC(F)(F)F)c3)cn2n1 [Example 11.077, N-tert-butyl-3-methoxy-4-[(6-{3-[(2,2,2-trifluoroethyl)carbamoyl]phenyl}[1,2,4]triazolo [1,5-a]pyridin-2-yl)amino]benzamide] |
